Results from patent US12655116B2, “Substituted isophthalic acid diamides” (Bayer Aktiengesellschaft, priority 2020, dated 2026).

Assays:
ABUTH [1] = experiment: Pre-emergence herbicidal action against ABUTH; format: in vivo, Abutilon theophrasti; conditions: Abutilon theophrasti, 504 h; for pest or weed control at 80 g/ha: scored visually after 3 weeks vs untreated controls (100% = plants have died, 0% = like control plants); for pest or weed control at 20 g/ha: dosage 20 g/ha, scored visually after 3 weeks vs untreated controls, 100% = plants have died, 0% = like control plants, read-out: Pre-emergence action against ABUTH (herbicidal activity in percent)
Procedure, shortened: (§1)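 Pre-emergence soil-surface spray of formulated compound (WP or EC; 600 to 800 l/ha; 0.2% wetting agent) over seeds sown in sandy loam. After 3 weeks under greenhouse conditions, damage is estimated visually in percent against untreated plants.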

ALOMY [2] = experiment: Pre-emergence herbicidal action against ALOMY; format: in vivo, Alopecurus myosuroides; conditions: Alopecurus myosuroides, 504 h, pre-emergence; for pest or weed control at 80 g/ha: scored visually after 3 weeks vs untreated controls (100% = plants have died, 0% = like control plants)
Procedure, shortened: as §1

AMARE [3] = experiment: Pre-emergence herbicidal action against AMARE; format: in vivo, Amaranthus retroflexus; conditions: Amaranthus retroflexus, 504 h, scored visually after 3 weeks vs untreated controls, 100% = plants have died, 0% = like control plants
Procedure, shortened: as §1

AVEFA [4] = experiment: Pre-emergence herbicidal action against AVEFA; format: in vivo, Avena fatua; conditions: Avena fatua, 504 h, pre-emergence
Procedure, shortened: as §1

ECHCG [5] = experiment: Pre-emergence herbicidal action against ECHCG; format: in vivo, Echinochloa crus-galli; conditions: Echinochloa crus-galli, 504 h, 80 g/ha
Procedure, shortened: as §1

LOLRI [6] = experiment: Pre-emergence herbicidal action against LOLRI; format: in vivo, Lolium rigidum; conditions: Lolium rigidum, 504 h, 80 g/ha
Procedure, shortened: as §1

MATIN [7] = experiment: Pre-emergence herbicidal action against MATIN; format: in vivo, Matricaria inodora; conditions: Tripleurospermum inodorum, 504 h; for pest or weed control at 20 g/ha: dosage 20 g/ha; for pest or weed control at 80 g/ha: dosage 80 g/ha
Procedure, shortened: as §1

PHBPU [8] = experiment: Pre-emergence herbicidal action against PHBPU; format: in vivo, Pharbitis purpurea; conditions: Ipomoea purpurea, 504 h, dosage 80 g/ha
Procedure, shortened: as §1

POLCO = experiment: Pre-emergence herbicidal action against POLCO; format: in vivo, Polygonum convolvulus; conditions: Fallopia convolvulus, 504 h, dosage 80 g/ha
Procedure, shortened: as §1

SETVI [9] = experiment: Pre-emergence herbicidal action against SETVI; format: in vivo, Setaria viridis; conditions: Setaria viridis, 504 h; for pest or weed control at 20 g/ha: dosage 20 g/ha; for pest or weed control at 80 g/ha: dosage 80 g/ha
Procedure, shortened: as §1

STEME [10] = experiment: Pre-emergence herbicidal action against STEME; format: in vivo, Stellaria media; conditions: Stellaria media, 504 h
Procedure, shortened: as §1

VERPE [11] = experiment: Pre-emergence herbicidal action against VERPE; format: in vivo, Veronica persica; conditions: Veronica persica, 504 h; for pest or weed control at 80 g/ha: dosage 80 g/ha
Procedure, shortened: as §1

VIOTR [12] = experiment: Pre-emergence herbicidal action against VIOTR; format: in vivo, Viola tricolor; conditions: Viola tricolor, 504 h; for pest or weed control at 20 g/ha: dosage 20 g/ha; for pest or weed control at 80 g/ha: dosage 80 g/ha
Procedure, shortened: as §1

DIGSA [13] = experiment: Pre-emergence herbicidal action against DIGSA; format: in vivo, Digitaria sanguinalis; conditions: Digitaria sanguinalis, 504 h; for pest or weed control at 20 g/ha: dosage 20 g/ha; for pest or weed control at 80 g/ha: dosage 80 g/ha
Procedure, shortened: as §1

ABUTH [14] = experiment: Post-emergence herbicidal action against ABUTH; format: in vivo, Abutilon theophrasti; conditions: Abutilon theophrasti, 504 h, visual assessment about 3 weeks after treatment vs untreated controls; for pest or weed control at 5 g/ha: dosage 5 g/ha; for pest or weed control at 20 g/ha: dosage 20 g/ha
Procedure, shortened: (§2)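 Greenhouse plants in sandy loam were sprayed at the one-leaf stage, 2 to 3 weeks after sowing, with WP or EC formulations as aqueous suspension or emulsion (600 to 800 l/ha water, 0.2% wetting agent). Visual damage was scored about 3 weeks later versus untreated controls, 0% = like control, 100% = dead.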

ALOMY [15] = experiment: Post-emergence herbicidal action against ALOMY; format: in vivo, Alopecurus myosuroides; conditions: Alopecurus myosuroides, 504 h, visual assessment about 3 weeks after treatment vs untreated controls; for pest or weed control at 20 g/ha: dosage 20 g/ha
Procedure, shortened: as §2

AMARE [16] = experiment: Post-emergence herbicidal action against AMARE; format: in vivo, Amaranthus retroflexus; conditions: Amaranthus retroflexus, 504 h, 20 g/ha, visual assessment about 3 weeks after treatment, 100% = plants have died, 0% = like control plants
Procedure, shortened: as §2

AVEFA [17] = experiment: Post-emergence herbicidal action against AVEFA; format: in vivo, Avena fatua; conditions: Avena fatua, 504 h, visual assessment about 3 weeks after treatment, 100% = plants have died, 0% = like control plants
Procedure, shortened: as §2

ECHCG [18] = experiment: Post-emergence herbicidal action against ECHCG; format: in vivo, Echinochloa crus-galli; conditions: Echinochloa crus-galli, 504 h; for pest or weed control at 5 g/ha: dosage 5 g/ha; for pest or weed control at 20 g/ha: dosage 20 g/ha
Procedure, shortened: as §2

HORMU = experiment: Post-emergence herbicidal action against HORMU; format: in vivo, Hordeum murinum; conditions: Hordeum murinum, 504 h, dosage 20 g/ha
Procedure, shortened: as §2

LOLRI [19] = experiment: Post-emergence herbicidal action against LOLRI; format: in vivo, Lolium rigidum; conditions: Lolium rigidum, 504 h, dosage 20 g/ha
Protocol: Seeds of monocotyledonous and dicotyledonous weed and crop plants are laid out in sandy loam soil in wood-fiber pots, covered with soil and cultivated in a greenhouse under good growth conditions. 2 to 3 weeks after sowing, the test plants are treated at the one-leaf stage. The compounds of the invention, formulated in the form of wettable powders (WP) or as emulsion concentrates (EC), are then sprayed onto the green parts of the plants in the form of an aqueous suspension or emulsion at a water application rate equivalent to 600 to 800 l/ha, with addition of 0.2% wetting agent. After the test plants have been left to stand in the greenhouse under optimal growth conditions for about 3 weeks, the action of the preparations is assessed visually in comparison to untreated controls (herbicidal action in percent (%): 100% activity=the plants have died, 0% activity=like control plants). […] The tables below illustrate, in an illustrative manner, the post-emergence herbicidal action of the compounds of the invention, the herbicidal activity being stated in percent.

MATIN [20] = experiment: Post-emergence herbicidal action against MATIN; format: in vivo, Matricaria inodora; conditions: Tripleurospermum inodorum, 504 h; for pest or weed control at 20 g/ha: dosage 20 g/ha
Procedure, shortened: as §2

PHBPU [21] = experiment: Post-emergence herbicidal action against PHBPU; format: in vivo, Pharbitis purpurea; conditions: Ipomoea purpurea, 504 h; for pest or weed control at 5 g/ha: dosage 5 g/ha; for pest or weed control at 20 g/ha: dosage 20 g/ha
Procedure, shortened: as §2

SETVI [22] = experiment: Post-emergence herbicidal action against SETVI; format: in vivo, Setaria viridis; conditions: Setaria viridis, 504 h; for pest or weed control at 5 g/ha: dosage 5 g/ha; for pest or weed control at 20 g/ha: dosage 20 g/ha
Procedure, shortened: as §2

STEME [23] = experiment: Post-emergence herbicidal action against STEME; format: in vivo, Stellaria media; conditions: Stellaria media, 504 h
Procedure, shortened: as §2

VERPE [24] = experiment: Post-emergence herbicidal action against VERPE; format: in vivo, Veronica persica; conditions: Veronica persica, 504 h
Procedure, shortened: as §2

VIOTR [25] = experiment: Post-emergence herbicidal action against VIOTR; format: in vivo, Viola tricolor; conditions: Viola tricolor, 504 h, 20 g/ha
Procedure, shortened: as §2

DIGSA [26] = experiment: Post-emergence herbicidal action against DIGSA; format: in vivo, Digitaria sanguinalis; conditions: Digitaria sanguinalis, 504 h
Procedure, shortened: as §2

[27] = 20 g/ha, scored visually after 3 weeks, 100% = plants have died, 0% = like control plants

CCNC(=O)c1c(C(F)(F)F)ccc(C(=O)Nc2nnnn2C)c1SC [Example 1-82]
80%: pest or weed control at 80 g/ha (ALOMY [2]) | pest or weed control at 80 g/ha (LOLRI [6]) | pest or weed control at 80 g/ha (PHBPU [8]) | pest or weed control at 20 g/ha (SETVI [9]) | pest or weed control at 5 g/ha (ECHCG [18]) | pest or weed control at 20 g/ha (LOLRI [19]) | pest or weed control at 20 g/ha (MATIN [20]) | pest or weed control at 5 g/ha (PHBPU [21]) | pest or weed control at 5 g/ha (SETVI [22]) | pest or weed control at 20 g/ha (VERPE [24])
100%: pest or weed control at 80 g/ha (ABUTH [1]) | pest or weed control at 20 g/ha (ABUTH [1]) | pest or weed control at 80 g/ha (AMARE [3]) | pest or weed control at 80 g/ha (ECHCG [5]) | pest or weed control at 20 g/ha (MATIN [7]) | pest or weed control at 80 g/ha (MATIN [7]) | pest or weed control at 80 g/ha (SETVI [9]) | pest or weed control at 20 g/ha (STEME [10]; dosage 20 g/ha) | pest or weed control at 80 g/ha (STEME [10]; dosage 80 g/ha) | pest or weed control at 20 g/ha (VIOTR [12]) | pest or weed control at 80 g/ha (VIOTR [12]) | pest or weed control at 20 g/ha (DIGSA [13]) | pest or weed control at 80 g/ha (DIGSA [13])
90%: pest or weed control at 20 g/ha (AMARE [3]) | pest or weed control at 80 g/ha (AVEFA [4]) | pest or weed control at 80 g/ha (POLCO) | pest or weed control at 80 g/ha (VERPE [11]) | pest or weed control at 5 g/ha (ABUTH [14]) | pest or weed control at 20 g/ha (ABUTH [14]) | pest or weed control at 20 g/ha (ALOMY [15]) | pest or weed control at 20 g/ha (AMARE [16]) | pest or weed control at 20 g/ha (AVEFA [17]) | pest or weed control at 20 g/ha (ECHCG [18]) | pest or weed control at 20 g/ha (HORMU) | pest or weed control at 20 g/ha (PHBPU [21]) | pest or weed control at 20 g/ha (SETVI [22]) | pest or weed control at 20 g/ha (STEME [23]; 20 g/ha) | pest or weed control at 5 g/ha (STEME [23]; dosage 5 g/ha) | pest or weed control at 20 g/ha (VIOTR [25]) | pest or weed control at 5 g/ha (DIGSA [26]; 5 g/ha) | pest or weed control at 20 g/ha (DIGSA [26])

CCCNC(=O)c1c(C(F)(F)F)ccc(C(=O)Nc2nnnn2CC)c1C [Example 2-32]
80%: pest or weed control at 5 g/ha (ECHCG [18]) | pest or weed control at 20 g/ha (LOLRI [19]) | pest or weed control at 5 g/ha (PHBPU [21]) | pest or weed control at 5 g/ha (SETVI [22])
90%: pest or weed control at 20 g/ha (ALOMY [2]; [27]) | pest or weed control at 80 g/ha (AVEFA [4]) | pest or weed control at 20 g/ha (AVEFA [4]; [27]) | pest or weed control at 80 g/ha (LOLRI [6]) | pest or weed control at 80 g/ha (PHBPU [8]) | pest or weed control at 80 g/ha (POLCO) | pest or weed control at 20 g/ha (VERPE [11]; dosage 20 g/ha) | pest or weed control at 5 g/ha (ABUTH [14]) | pest or weed control at 20 g/ha (ABUTH [14]) | pest or weed control at 5 g/ha (ALOMY [15]; dosage 5 g/ha) | pest or weed control at 5 g/ha (AVEFA [17]; 5 g/ha) | pest or weed control at 20 g/ha (ECHCG [18]) | pest or weed control at 5 g/ha (MATIN [20]; dosage 5 g/ha) | pest or weed control at 20 g/ha (MATIN [20]) | pest or weed control at 20 g/ha (PHBPU [21]) | pest or weed control at 5 g/ha (VERPE [24]; 5 g/ha) | pest or weed control at 20 g/ha (VERPE [24]) | pest or weed control at 20 g/ha (DIGSA [26])
100%: pest or weed control at 80 g/ha (ABUTH [1]) | pest or weed control at 20 g/ha (ABUTH [1]) | pest or weed control at 80 g/ha (ALOMY [2]) | pest or weed control at 20 g/ha (AMARE [3]) | pest or weed control at 80 g/ha (AMARE [3]) | pest or weed control at 80 g/ha (ECHCG [5]) | pest or weed control at 20 g/ha (MATIN [7]) | pest or weed control at 80 g/ha (MATIN [7]) | pest or weed control at 20 g/ha (SETVI [9]) | pest or weed control at 80 g/ha (SETVI [9]) | pest or weed control at 80 g/ha (VERPE [11]) | pest or weed control at 20 g/ha (VIOTR [12]) | pest or weed control at 80 g/ha (VIOTR [12]) | pest or weed control at 20 g/ha (DIGSA [13]) | pest or weed control at 80 g/ha (DIGSA [13]) | pest or weed control at 20 g/ha (ALOMY [15]) | pest or weed control at 20 g/ha (AMARE [16]) | pest or weed control at 20 g/ha (AVEFA [17]) | pest or weed control at 20 g/ha (SETVI [22])
